Data set [1] in a line: Non-specific binding assessment, efflux transporter format (cell-free Transwell plates). The settings on record: pH 7.4, all three replicates. In kind it is in vitro ADME. The source says:
Triplicate wells were used for the assay (Table 31). The samples were withdrawn at pre-selected time points from the receiver and donor compartments and mixed with an equal volume of acetonitrile containing IS.

Data set [2] is described as follows: Solubility assessment in HBSSg_7.4 and HBSSg_8.5. Conditions: for solubility: 37 °C, thermodynamic from solid; for Measured Concentration / Percent of the Nominal Concentration: replicates 1-3; for Measured Concentration: incubated overnight.
A further data set concerns the target T1, OATP1B1 (Homo sapiens, UniProt Q9Y6L6).
T1 sequence (Q9Y6L6 1-691): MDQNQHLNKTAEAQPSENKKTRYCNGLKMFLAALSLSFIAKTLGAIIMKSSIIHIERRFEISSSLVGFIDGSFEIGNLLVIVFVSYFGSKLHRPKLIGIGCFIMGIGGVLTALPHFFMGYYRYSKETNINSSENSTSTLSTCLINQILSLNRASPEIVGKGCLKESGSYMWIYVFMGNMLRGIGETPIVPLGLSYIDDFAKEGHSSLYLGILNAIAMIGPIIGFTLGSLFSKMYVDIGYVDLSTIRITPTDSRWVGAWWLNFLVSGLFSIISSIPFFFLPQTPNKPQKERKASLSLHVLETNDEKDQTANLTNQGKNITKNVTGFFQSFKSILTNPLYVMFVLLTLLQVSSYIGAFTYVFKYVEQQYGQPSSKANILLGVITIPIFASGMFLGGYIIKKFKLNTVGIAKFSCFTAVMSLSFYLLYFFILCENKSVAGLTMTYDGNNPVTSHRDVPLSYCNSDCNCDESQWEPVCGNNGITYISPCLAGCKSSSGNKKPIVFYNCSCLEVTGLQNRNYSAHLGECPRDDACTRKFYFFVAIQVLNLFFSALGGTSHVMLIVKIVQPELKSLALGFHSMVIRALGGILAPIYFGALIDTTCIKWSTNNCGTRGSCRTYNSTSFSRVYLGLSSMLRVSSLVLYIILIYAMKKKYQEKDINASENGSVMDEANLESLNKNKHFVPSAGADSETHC

A short description of data set [3]: Human Plasma Protein Binding. The data set is classed as in vitro ADME.
A further data set addresses T2, BCRP (Homo sapiens, UniProt Q9UNQ0).
T2 sequence (Q9UNQ0 1-655): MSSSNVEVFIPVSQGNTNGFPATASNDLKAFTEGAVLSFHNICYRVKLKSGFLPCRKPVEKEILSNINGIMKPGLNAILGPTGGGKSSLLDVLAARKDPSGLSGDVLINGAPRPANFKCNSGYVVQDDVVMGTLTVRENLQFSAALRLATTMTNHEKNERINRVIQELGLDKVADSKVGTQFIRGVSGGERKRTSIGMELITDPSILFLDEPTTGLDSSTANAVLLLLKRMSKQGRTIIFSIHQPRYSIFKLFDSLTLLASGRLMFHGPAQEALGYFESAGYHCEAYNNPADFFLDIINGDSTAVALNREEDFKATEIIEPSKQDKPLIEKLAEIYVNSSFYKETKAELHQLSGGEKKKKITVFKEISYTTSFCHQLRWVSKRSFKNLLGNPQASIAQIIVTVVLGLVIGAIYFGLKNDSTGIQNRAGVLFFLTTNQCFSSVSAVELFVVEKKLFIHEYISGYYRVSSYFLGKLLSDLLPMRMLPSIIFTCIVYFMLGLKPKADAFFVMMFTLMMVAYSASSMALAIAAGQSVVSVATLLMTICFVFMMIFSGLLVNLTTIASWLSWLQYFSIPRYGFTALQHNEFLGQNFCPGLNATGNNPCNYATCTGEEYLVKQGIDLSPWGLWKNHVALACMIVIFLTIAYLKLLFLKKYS
Put plainly: BCRP IC50 assessment, bidirectional cladribine transport in BCRP-MDCK cells. As to the method: (§1) After 30 minutes, the pre-incubation solution was aspirated.

A further data set concerns the target P-gp (Homo sapiens, UniProt P08183). Kind of data set: P-gp IC50 assessment, bidirectional digoxin transport in C2BBe1 cells. As to the method:
as §1

The next data set concerns the target T3, OATP1B3 (Homo sapiens, UniProt Q9NPD5).
T3 sequence (Q9NPD5 1-702): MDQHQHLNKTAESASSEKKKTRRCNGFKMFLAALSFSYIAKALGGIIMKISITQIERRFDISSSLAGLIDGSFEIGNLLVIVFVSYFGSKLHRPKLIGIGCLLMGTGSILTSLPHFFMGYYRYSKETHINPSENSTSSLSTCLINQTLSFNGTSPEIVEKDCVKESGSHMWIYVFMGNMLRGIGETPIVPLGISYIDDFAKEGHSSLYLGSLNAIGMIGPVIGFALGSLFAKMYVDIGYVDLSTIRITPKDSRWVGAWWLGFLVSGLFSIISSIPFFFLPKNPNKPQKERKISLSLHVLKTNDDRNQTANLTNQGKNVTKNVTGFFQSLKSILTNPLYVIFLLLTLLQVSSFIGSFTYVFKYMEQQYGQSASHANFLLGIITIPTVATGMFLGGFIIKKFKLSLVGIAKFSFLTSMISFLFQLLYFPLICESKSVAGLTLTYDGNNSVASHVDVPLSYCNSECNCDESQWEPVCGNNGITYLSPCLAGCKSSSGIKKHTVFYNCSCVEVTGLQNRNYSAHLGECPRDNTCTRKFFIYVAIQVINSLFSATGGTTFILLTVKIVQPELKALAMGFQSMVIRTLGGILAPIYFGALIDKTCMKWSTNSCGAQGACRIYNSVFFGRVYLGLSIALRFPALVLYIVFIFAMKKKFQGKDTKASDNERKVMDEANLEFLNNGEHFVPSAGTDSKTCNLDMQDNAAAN

Setting [4] is: HBSSg 7.4 buffer, pH 7.4, aqueous buffer.
Where [5] appears, read: HBSSg 8.5 buffer, pH 8.5, aqueous buffer.

Where “and” joins values, the source holds several entries; their conditions need not be identical. Equal entries are not always repeated. Bounds are passed on as bounds.

Sequence of P-gp (P08183 whole entry): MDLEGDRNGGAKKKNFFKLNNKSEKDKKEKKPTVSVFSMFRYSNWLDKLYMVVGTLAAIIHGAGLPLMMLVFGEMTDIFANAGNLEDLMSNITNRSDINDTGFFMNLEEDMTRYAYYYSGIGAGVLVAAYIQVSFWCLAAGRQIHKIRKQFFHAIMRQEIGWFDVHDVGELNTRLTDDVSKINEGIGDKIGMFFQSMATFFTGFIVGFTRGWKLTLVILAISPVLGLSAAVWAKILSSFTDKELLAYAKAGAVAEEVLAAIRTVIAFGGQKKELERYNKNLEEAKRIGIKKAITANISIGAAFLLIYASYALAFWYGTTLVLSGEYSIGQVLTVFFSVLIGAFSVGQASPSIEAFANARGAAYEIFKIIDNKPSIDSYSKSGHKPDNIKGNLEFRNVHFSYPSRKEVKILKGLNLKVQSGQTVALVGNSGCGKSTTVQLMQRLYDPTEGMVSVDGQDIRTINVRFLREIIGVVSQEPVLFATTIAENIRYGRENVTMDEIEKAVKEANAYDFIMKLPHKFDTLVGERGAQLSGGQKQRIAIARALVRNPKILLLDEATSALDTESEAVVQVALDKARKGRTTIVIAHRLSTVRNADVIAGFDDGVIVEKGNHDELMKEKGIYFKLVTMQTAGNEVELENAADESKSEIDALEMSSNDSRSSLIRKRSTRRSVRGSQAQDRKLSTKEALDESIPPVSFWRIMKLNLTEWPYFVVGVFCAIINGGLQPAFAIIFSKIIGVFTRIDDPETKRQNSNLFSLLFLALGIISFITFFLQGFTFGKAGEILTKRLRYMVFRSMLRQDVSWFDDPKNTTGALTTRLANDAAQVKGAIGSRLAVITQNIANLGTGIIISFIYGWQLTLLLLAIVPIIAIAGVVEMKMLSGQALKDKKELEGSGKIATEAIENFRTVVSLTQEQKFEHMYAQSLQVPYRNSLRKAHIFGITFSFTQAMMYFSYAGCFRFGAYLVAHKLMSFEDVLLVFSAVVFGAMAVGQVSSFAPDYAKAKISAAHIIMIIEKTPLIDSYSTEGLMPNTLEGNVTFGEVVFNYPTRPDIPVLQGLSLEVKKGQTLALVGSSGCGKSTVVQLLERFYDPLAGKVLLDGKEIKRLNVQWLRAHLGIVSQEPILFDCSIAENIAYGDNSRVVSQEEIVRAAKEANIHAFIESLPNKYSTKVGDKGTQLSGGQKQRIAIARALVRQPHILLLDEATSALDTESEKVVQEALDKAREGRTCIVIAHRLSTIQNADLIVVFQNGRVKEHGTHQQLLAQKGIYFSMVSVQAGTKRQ

As for `O=C(O)CCCc1ccccc1` [PB, sodium phenylbutyrate], the recovery in data set [1] is greater than 80%. Besides, the figures for the solubility in data set [2] (setting [4]) and in data set [2] (setting [5]) were no less than 64.4 mM and no less than 73.9 mM, respectively. The “Measured Concentration” value in data set [2] (HBSSg_7.4) was 52000 µM and 59300 µM and 52800 µM; in data set [2] (HBSSg_8.5) it was 62200 µM and 53200 µM and 61100 µM. For the same molecule, the “Percent of the Nominal Concentration” value was 80.7% and 92.0% in data set [2] (HBSSg_7.4, target 8005 (TUDCA), 64447 μM (PB)); 84.1% and 72.0% and 82.6% in data set [2] (HBSSg_8.5, target 810 μM (TUDCA), 73927 μM (PB)). The IC50 (in general, the concentration that gives 50% inhibition) on OATP1B1 was in the range of 1210 to 3630 µM; against BCRP it was 2390 to 7160 µM; against P-gp, 1790 to 5370 µM; against OATP1B3, 3630 to 10900 µM. Besides, in data set [3], the fraction unbound – broadly, the share of the substance not bound to proteins or other matrix – was 0.179.
For the molecule `C[C@H](CCC(=O)NCCS(=O)(=O)O)[C@H]1CC[C@H]2[C@@H]3[C@@H](O)C[C@@H]4C[C@H](O)CC[C@]4(C)[C@H]3CC[C@]12C` [TUDCA, tauroursodeoxycholic acid], the recovery in data set [1] was greater than 80%. The solubility (commonly the dissolved amount per volume that the medium holds) was no less than 8.01 mM in data set [2] (setting [4]) and no less than 0.81 mM in data set [2] (setting [5]). Moreover, the IC50 against OATP1B1 lay in the range of 12.9 to 38.7 µM; at BCRP, 296 to 889 µM; on P-gp, 222 to 667 µM; at OATP1B3, 38.7 to 116 µM. This molecule also gave a free fraction (fraction unbound) in data set [3] of 0.015.

The values are drawn from US20230277630A1, “METHODS AND COMPOSITIONS FOR TREATING AMYOTROPHIC LATERAL SCLEROSIS” (Amylyx Pharmaceuticals, Inc., priority 2022, published 2023).
